{"source": "patent US20050026223A1", "about": "“Method and compositions for increasing bone mass” (The Board of Trustees of the University of Arkansas, priority 1999, published 2005)", "key": {"[1]": {"tested_on": "osteoblastic cells derived from murine calvaria", "assay": "Etoposide-induced apoptosis of osteoblastic cells derived from murine calvaria (trypan blue uptake)", "assay_type": "cell-based", "conditions": "for Lowest Effective Concentration: inhibition of etoposide-induced osteoblast apoptosis, 1 hour pretreatment, trypan blue after 6 hours; for Suppression by 10^−8 M Flutamide: suppression of the anti-apoptotic effect by the androgen receptor antagonist flutamide; for Anti-apoptotic effect on osteoblastic cells after ICI182,780: compound 10^−8 M, 1 h pretreatment with ICI182,780 10^−7 M", "protocol": "Osteoblastic cells derived from murine calvaria were pretreated with the sterols for 1 hour before the addition of the pro-apoptotic agent, etoposide. Apoptosis was determined after 6 hours by trypan blue uptake (Jilka et al, J. Bone and Min. Res. 13:793:802, 1998). * indicates p<0.05 versus etoposide alone, by analysis of variance (ANOVA) (Student-Newman-Keuls method).\nOsteoblastic cells derived from murine calvaria were pretreated for 1 hour with the pure receptor antagonist ICI182,780 (10^−7 M) before the addition of the test agents (10^−8 M). Apoptosis was induced and quantified as described in FIG. 3. * indicates p<0.05 versus etoposide alone, by ANOVA (Student-Newman-Keuls method).\nIn this experiment, osteoblastic cells were derived from murine calvaria and were pretreated with the sterols for 1 hour before the addition of the pro-apoptotic agent, etoposide.\nIn these experiments, cells were pretreated with the indicated concentrations of the various compounds for 1 hour, in the absence or presence of the androgen receptor antagonist flutamide, before the addition of the proapoptotic agent etoposide. Apoptosis was determined after 6 hours by trypan blue uptake as described in FIG. 3."}, "[2]": {"conditions": "for at least four years; cited from earlier work"}, "[3]": {"tested_on": "HeLa cells transfected with the estrogen receptor α (mERα)", "assay": "Etoposide-induced apoptosis of HeLa cells stably transfected with mERα", "assay_type": "cell-based, human", "conditions": "compound 10^−8 M 1 h, etoposide 5×10^−5 M 6 hour", "source_text": "(§1) CMV promoter alone and CMV promoter-driven cDNA for mERα or mErβ were stably transfected into HeLa cells. […] Cells were trypsinized, pelleted and trypan blue positive cells enumerated.\n(§2) In this experiment, instead of calvaria cells, human HeLa cells which contain undetectable, if any, estrogen receptor were used. HeLa cells were stably transfected with either a CMV promoter-driven cDNA for the murine estrogen receptor-alpha (mERα) or a CMV promoter-driven cDNA for the murine estrogen receptor-beta (mERβ). […] Cells were trypsinized, pelleted and trypan blue positive cells were enumerated."}, "wild type HeLa cells": {"tested_on": "wild type HeLa cells", "assay": "Etoposide-induced apoptosis of wild type HeLa cells", "assay_type": "cell-based, human", "conditions": "compound 10^−8 M 1 h, etoposide 5×10^−5 M 6 hour", "source_text": "CMV promoter alone and CMV promoter-driven cDNA for mERα or mErβ were stably transfected into HeLa cells. […] Cells were trypsinized, pelleted and trypan blue positive cells enumerated. Each bar represents mean of duplicate experiments ±SEM. *P<0.02 versus etoposide alone.\nas §2"}, "[4]": {"tested_on": "HeLa cells transfected with estrogen receptor β (mERβ)", "assay": "Etoposide-induced apoptosis of HeLa cells stably transfected with mERβ", "assay_type": "cell-based, human", "conditions": "compound 10^−8 M 1 h, etoposide 5×10^−5 M 6 hour", "source_text": "as §1, §2"}, "osteoclasts": {"tested_on": "osteoclasts", "conditions": "increased from approximately 0.5%; cited from earlier work"}, "MLO-Y4 osteocytic cells [5]": {"tested_on": "MLO-Y4 osteocytic cells", "assay": "Dexamethasone-induced apoptosis of MLO-Y4 osteocytic cells with PD98059", "assay_type": "cell-based, murine", "conditions": "compound 10^−8 M; PD98059 1 hour; dexamethasone 6 hours", "protocol": "Apoptosis was induced by incubation with the pro-apoptotic agent dexamethasone for 6 hour and quantified as described in FIG. 3. * indicates p<0.05 versus the corresponding control group without dexamethasone, by ANOVA (Student-Newman-Keuls method).\nThat indeed the anti-apoptotic effect of all the compounds tested herein was mediated via activation of ERKs was established by the results of the experiments shown in FIG. 10. […] Apoptosis was induced by incubation with the pro-apoptotic agent dexamethasone for 6 hours and quantified as described in FIG. 3."}, "[6]": {"tested_on": "extracellular signal regulated kinases (ERKs) 1 and 2", "assay": "Western blot of phosphorylated ERK1/2 in MLO-Y4 osteocytic cells", "assay_type": "cell-based, murine", "conditions": "for Activation of ERKs (phosphorylated fraction of ERK1/2): 10^−8 M, 5, 15 or 30 minutes; for Ability to activate ERKs in the presence of PD98059: compound 10^−8 M, 5 minutes, 50 μM PD98059", "protocol": "(§3) MLO-Y4 osteocytic cells were incubated for 25 minutes in serum-free medium. […] Cell lysates were prepared and proteins were separated by electrophoresis in polyacrylamide gels and transferred to PVDF membranes. Western blotting was performed using a specific antibody recognizing phosphorylated ERKs 1 and 2, followed by reblotting with an antibody recognizing total ERKs. Blots were developed by enhanced chemiluminescence.\nas §3, with “MLO-Y4” for “MLO-Y4 osteocytic”, “medium in the presence or absence of 50 μM PD98059.” for “medium.”\nas §3, with “In this experiment, MLO-Y4” for “MLO-Y4”, “extracellular signal regulated kinases” for “ERKs”, “extracellular signal regulated kinases.” for “ERKs.”, “chemiluminescence. […] This effect is too rapid to be accounted for by the classical mechanism of estrogen action.” for “chemiluminescence.”\nas §3, with “In this experiment, MLO-Y4” for “MLO-Y4”, “medium in the presence or absence of 50 μM PD98059.” for “medium.”, “extracellular signal regulated kinases” for “ERKs”, “extracellular signal regulated kinases.” for “ERKs.”"}, "MLO-Y4 osteocytic cells [7]": {"tested_on": "MLO-Y4 osteocytic cells", "assay": "Etoposide-induced apoptosis of MLO-Y4 osteocytic cells (trypan blue uptake)", "assay_type": "cell-based, murine", "conditions": "for Inhibition of etoposide-induced apoptosis of osteocytic cell line: 1 h pretreatment before etoposide, trypan blue after 6 h; for Antiapoptotic effect on osteocytes after ICI182,780: 1 h pretreatment with ICI182,780 10^−7 M", "protocol": "Cells were pretreated with the indicated concentrations of the compounds for 1 hour before the addition of the pro-apoptotic agent etoposide. Apoptosis was determined after 6 hour by trypan blue uptake as described in FIG. 3. * indicates p<0.05 versus etoposide alone, by ANOVA (Student-Newman-Keuls method).\nMLO-Y4 cells were pretreated for 1 hour with the pure receptor antagonist ICI182,780 (10^−7 M) before the addition of the test agents (10^−8 M). Apoptosis was induced and quantified as described in FIG. 3. * indicates p<0.05 versus etoposide alone, by ANOVA (Student-Newman-Keuls method).\nIn this experiment, MLO-Y4 cells were pretreated with the indicated concentrations of the various compounds for 1 h before the addition of the pro-apoptotic agent, etoposide. Apoptosis was determined after 6 h by trypan blue uptake as described in FIG. 3."}, "[8]": {"conditions": "rats, intravenously; cited from earlier work"}, "[9]": {"conditions": "human iliac trabecular bone, after one year of treatment; cited from earlier work"}, "osteoblasts": {"tested_on": "osteoblasts", "conditions": "intermittent administration in mice; decreased from 1.7-2.2%; cited from earlier work"}}}
{"molecule": "C[C@]12CCC(=O)C[C@@H]1CC[C@@H]1[C@@H]2CC[C@]2(C)[C@@H](O)CC[C@@H]12", "note": "[5-α-dihydrotestosterone]", "values": [{"measurement": "Lowest Effective Concentration", "setting": "[1]", "value": "10^−9 M"}, {"measurement": "Suppression by 10^−8 M Flutamide", "setting": "[1]", "value": "yes"}]}
{"molecule": "C[C@]12CC[C@H]3[C@@H](CC=C4C[C@@H](O)CC[C@@]43C)[C@@H]1CC[C@@H]2O", "note": "[5-androstene-3β-17_-diol]", "values": [{"measurement": "Lowest Effective Concentration", "setting": "[1]", "value": "10^−8 M"}, {"measurement": "Suppression by 10^−8 M Flutamide", "setting": "[1]", "value": "yes"}]}
{"molecule": "C[C@]12CC[C@H]3[C@@H](CCC4=CC(=O)CC[C@@]43C)[C@@H]1CC[C@@H]2O", "note": "[Testosterone]", "values": [{"measurement": "Lowest Effective Concentration", "setting": "[1]", "value": "10^−9 M"}, {"measurement": "Suppression by 10^−8 M Flutamide", "setting": "[1]", "value": "yes"}]}
{"molecule": "C[C@]1(O)CC[C@H]2[C@@H]3CCC4=CC(=O)CCC4=C3C=C[C@@]21C", "note": "[RU1881]", "values": [{"measurement": "Lowest Effective Concentration", "setting": "[1]", "value": "10^−8 M"}, {"measurement": "Suppression by 10^−8 M Flutamide", "setting": "[1]", "value": "yes"}]}
{"molecule": "[F-].[Na+]", "note": "[sodium fluoride]", "values": [{"measurement": "Increase of vertebral bone mass", "setting": "[2]", "value": 10, "unit": "% a year"}]}
{"molecule": "C[C@]12CC[C@@H]3c4ccc(O)cc4CC[C@H]3[C@@H]1CC[C@@H]2O", "note": "[17β-estradiol, reference compound]", "values": [{"measurement": "Effect on etoposide-induced apoptosis", "setting": "[3]", "value": "potently inhibited"}, {"measurement": "Effect on etoposide-induced apoptosis", "setting": "wild type HeLa cells", "value": "none of the three compounds had any effect"}, {"measurement": "Effect on etoposide-induced apoptosis", "setting": "[4]", "value": "potently inhibited"}, {"measurement": "Apoptosis of osteoclasts", "setting": "osteoclasts", "value": "≤ 2.7", "unit": "%"}, {"measurement": "Inhibition of etoposide-induced osteoblast apoptosis", "setting": "[1]; 1 hour pretreatment before etoposide", "value": "prevented apoptosis of osteoblastic cells isolated from murine calvaria, in a dose dependent manner"}, {"measurement": "Anti-apoptotic effect on osteoblastic cells after ICI182,780", "setting": "[1]", "value": "abrogated"}, {"measurement": "Anti-apoptotic effect after PD98059 pretreatment", "setting": "MLO-Y4 osteocytic cells [5]", "value": "prevented the anti-apoptotic effect"}, {"measurement": "Activation of ERKs (phosphorylated fraction of ERK1/2)", "setting": "[6]", "value": "activated"}, {"measurement": "Ability to activate ERKs in the presence of PD98059", "setting": "[6]", "value": "abrogated"}, {"measurement": "Inhibition of etoposide-induced apoptosis of osteocytic cell line", "setting": "MLO-Y4 osteocytic cells [7]", "value": "dose-dependently inhibited"}, {"measurement": "Antiapoptotic effect on osteocytes after ICI182,780", "setting": "MLO-Y4 osteocytic cells [7]", "value": "abrogated"}]}
{"molecule": "C[C@]12CC[C@H](OS(=O)(=O)O)CC1=CC[C@@H]1[C@@H]2CC[C@]2(C)C(=O)CC[C@@H]12", "note": "[Dehydroisoandrosterone-3-sulfate (DHES), Dehydroisoandrosterone-3-sulfate]", "values": [{"measurement": "Lowest Effective Concentration", "setting": "[1]", "value": "10^−8 M"}, {"measurement": "Suppression by 10^−8 M Flutamide", "setting": "[1]", "value": "no*"}]}
{"molecule": "CC(=O)N[C@@H](CS)C(=O)O", "note": "[N-acetylcysteine, acetamido-mercaptopropionic acid]", "values": [{"measurement": "LD50", "setting": "[8]", "value": 1140, "unit": "mg/kg"}]}
{"molecule": "C[C@]12CCC(=O)C=C1CC[C@@H]1[C@@H]2CC[C@]2(C)C(=O)CC[C@@H]12", "note": "[4-androstene-3,17-dione]", "values": [{"measurement": "Lowest Effective Concentration", "setting": "[1]", "value": "10^−8 M"}, {"measurement": "Suppression by 10^−8 M Flutamide", "setting": "[1]", "value": "yes"}]}
{"molecule": "C[C@]12CC[C@@H]3c4ccc(O)cc4CC[C@H]3[C@@H]1CC[C@H]2O", "note": "[17α-estradiol]", "values": [{"measurement": "Effect on etoposide-induced apoptosis", "setting": "[3]", "value": "potently inhibited"}, {"measurement": "Effect on etoposide-induced apoptosis", "setting": "wild type HeLa cells", "value": "none of the three compounds had any effect"}, {"measurement": "Effect on etoposide-induced apoptosis", "setting": "[4]", "value": "potently inhibited"}, {"measurement": "Anti-apoptotic effect on osteoblastic cells after ICI182,780", "setting": "[1]", "value": "abrogated"}, {"measurement": "Anti-apoptotic effect after PD98059 pretreatment", "setting": "MLO-Y4 osteocytic cells [5]", "value": "prevented the anti-apoptotic effect"}, {"measurement": "Activation of ERKs (phosphorylated fraction of ERK1/2)", "setting": "[6]", "value": "activated"}, {"measurement": "Ability to activate ERKs in the presence of PD98059", "setting": "[6]", "value": "abrogated"}, {"measurement": "Inhibition of etoposide-induced apoptosis of osteocytic cell line", "setting": "MLO-Y4 osteocytic cells [7]", "value": "dose-dependently inhibited"}, {"measurement": "Antiapoptotic effect on osteocytes after ICI182,780", "setting": "MLO-Y4 osteocytic cells [7]", "value": "abrogated"}]}
{"molecule": "C[C@]12CCC(=O)C[C@@H]1CC[C@@H]1[C@@H]2CC[C@]2(C)[C@@H](O)CC[C@@H]12", "note": "[5-β-dihydrotestosterone]", "values": [{"measurement": "Lowest Effective Concentration", "setting": "[1]", "value": "10^−10 M"}, {"measurement": "Suppression by 10^−8 M Flutamide", "setting": "[1]", "value": "yes"}]}
{"molecule": "CC(O)(P(=O)(O)O)P(=O)(O)O", "note": "[etidronate]", "values": [{"measurement": "Reduction of resorption depth", "setting": "[9]", "value": "~30", "unit": "%"}]}
{"molecule": "PTH: parathyroid hormone, an agent known for its role in calcium homeostasis (protein, UniProt P01270 32-115, looked up, Parathyroid hormone, parathyroid hormone, an agent known for its role in calcium homeostasis) Parathyroid hormone: SVSEIQLMHNLGKHLNSMERVEWLRKKLQDVHNFVALGAPLAPRDAGSQRPRKKEDNVLVESHEKSLGEADKADVNVLTKAKSQ", "values": [{"measurement": "Prevalence of osteoblast apoptosis", "setting": "osteoblasts", "value": "0.1-0.4%"}]}
